Type in all cases: functional
The species named for assay [1] is Rattus norvegicus. The assay can be described thus: Tested for maximum response in depolarization of isolated rat vagus nerve measured at dose 10 uM.
The species entered for assay [2] is Rattus norvegicus. Briefly: Tested for effective concentration against 5-HT mediated depolarization of isolated rat vagus nerve.
Assay [3] concerns the target T1, Serotonin 3 (5-HT3) receptor (Rattus norvegicus) (UniProt P35563+Q9JJ16). Briefly: Tested for % decrease in heart rate relative to pre-dose control against 2-methyl-5-HT induced bradycardia (von Bezold-Jarisch (B-J) reflex) in anesthetized rats. Also noted: scale not given: the % may be the effect or the level left.
Assay [4] concerns the target T1, Serotonin 3 (5-HT3) receptor (Rattus norvegicus). Briefly: Agonist activity against 2-methyl-5-HT induced bradycardia (von Bezold-Jarisch (B-J) reflex) in anesthetized rats.

In general, EC50 refers to the midpoint of the concentration-response curve. In turn, `NCCc1c[nH]c2ccc(O)cc12` [SEROTONIN] came in with a Max response in the assay listed under Rattus norvegicus [1] of 340 uV. The same compound had an EC50 in the assay filed under Rattus norvegicus [2] of 0.977 µM.

By ED50 is commonly meant the dose that gives a 50% effect, or the effect in half of the subjects. On to `Cc1[nH]c2ccc(O)cc2c1CCN`, for which the Control in assay [3] worked out at 58%. In the assay listed under Rattus norvegicus [1], this compound gave a Max response of 363 uV. Besides, the ED50 in assay [4] was determined as 7.7 µg/kg. Also, a half-maximal effect in the assay filed under Rattus norvegicus [2] (EC50) was put at 6.17 µM.

For the origin of these results see ChEMBL document CHEMBL1128795, “N-(Quinuclidin-3-yl)-2-(1-methyl-1H-indol-3-yl)-2-oxo-acetamide: a high affinity 5-HT3 receptor partial agonist” (Bioorg Med Chem Lett, 1995).
